Experimental data from PubChem BioAssay (NCI).
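All cell lines were grown in 96-well plates and treated with compound for 48 hours. At the TGI there is no net growth.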

What was measured:
Assay in all cases: DTP human tumour cell line panel, 48 h
OVCAR-5 ovarian = tested on: OVCAR-5 ovarian
MDA-N = tested on: MDA-N
BT-549 breast = tested on: BT-549 breast
786-0 renal = tested on: 786-0 renal
COLO 205 colon = tested on: COLO 205 colon
CAKI-1 renal = tested on: CAKI-1 renal
SNB-19 CNS = tested on: SNB-19 CNS
SK-OV-3 ovarian = tested on: SK-OV-3 ovarian
SF-268 CNS = tested on: SF-268 CNS
NCI/ADR-RES ovarian = tested on: NCI/ADR-RES ovarian
MALME-3M melanoma = tested on: MALME-3M melanoma
KM12 colon = tested on: KM12 colon
LOX IMVI melanoma = tested on: LOX IMVI melanoma
DU-145 prostate = tested on: DU-145 prostate
EKVX NSCLC = tested on: EKVX NSCLC
NCI-H460 lung = tested on: NCI-H460 lung
UACC-62 melanoma = tested on: UACC-62 melanoma
HT29 colon = tested on: HT29 colon
NCI-H522 lung = tested on: NCI-H522 lung
HOP-62 NSCLC = tested on: HOP-62 NSCLC
OVCAR-8 ovarian = tested on: OVCAR-8 ovarian
M14 melanoma = tested on: M14 melanoma
MCF7 breast = tested on: MCF7 breast
MOLT-4 leukemia = tested on: MOLT-4 leukemia
OVCAR-4 ovarian = tested on: OVCAR-4 ovarian
NCI-H23 lung = tested on: NCI-H23 lung
SK-MEL-2 melanoma = tested on: SK-MEL-2 melanoma
PC-3 prostate = tested on: PC-3 prostate
NCI-H226 lung = tested on: NCI-H226 lung
RXF 393 renal = tested on: RXF 393 renal
HS 578T breast = tested on: HS 578T breast
SR leukemia = tested on: SR leukemia
UACC-257 melanoma = tested on: UACC-257 melanoma
IGROV1 ovarian = tested on: IGROV1 ovarian
CCRF-CEM leukemia = tested on: CCRF-CEM leukemia
U251 CNS = tested on: U251 CNS
ACHN renal = tested on: ACHN renal
HCT-116 colon = tested on: HCT-116 colon
K-562 leukemia = tested on: K-562 leukemia
TK-10 renal = tested on: TK-10 renal
A498 renal = tested on: A498 renal
HL-60(TB) leukemia = tested on: HL-60(TB) leukemia
SNB-75 CNS = tested on: SNB-75 CNS
UO-31 renal = tested on: UO-31 renal
SF-539 CNS = tested on: SF-539 CNS
T-47D breast = tested on: T-47D breast
RPMI-8226 leukemia = tested on: RPMI-8226 leukemia
SF-295 CNS = tested on: SF-295 CNS
SW-620 colon = tested on: SW-620 colon
SK-MEL-5 melanoma = tested on: SK-MEL-5 melanoma
SN12C renal = tested on: SN12C renal
A549 NSCLC = tested on: A549 NSCLC
MDA-MB-435 = tested on: MDA-MB-435
OVCAR-3 ovarian = tested on: OVCAR-3 ovarian
HCT-15 colon = tested on: HCT-15 colon
HCC-2998 colon = tested on: HCC-2998 colon
MDA-MB-231 breast = tested on: MDA-MB-231 breast

Measured: TGI

CC(C)(C)[Si](C)(C)OCCOCn1cc(F)c(=O)[nH]c1=O
not listed: HCC-2998 colon | MDA-MB-231 breast
> 100 µM: all other assays above

O=C1CC(C(=O)N2CCCCC2)n2c(=O)n(-c3ccccc3)c(=O)n2C1 (stereo not drawn)
not listed: MOLT-4 leukemia | OVCAR-4 ovarian | SK-MEL-2 melanoma | SR leukemia | CCRF-CEM leukemia | U251 CNS | K-562 leukemia | A498 renal | HL-60(TB) leukemia | T-47D breast | RPMI-8226 leukemia | SW-620 colon | SN12C renal | MDA-MB-435
> 100 µM: all other assays above
